Reference: patent publication US20260041679A1, “METHOD OF TREATING HYPERTENSION WITH THE ALDOSTERONE SYNTHASE INHIBITOR BAXDROSTAT” (CINCOR PHARMA, INC., priority 2022, published 2026)
Where two headings read alike, the source gives them in different places.

What was measured:
[1] = Safety in hepatic function study (Example 5); assay type: in vivo, human
Description: Subjects with moderate hepatic impairment (Child-Pugh Category B, n=10) and healthy controls (n=10) were each given a single 10 mg oral dose of baxdrostat. Subjects were matched by age, sex, body mass index, race, and smoking status. Serial blood and urine samples were collected to determine plasma and urine concentrations of baxdrostat for 7 days postdose. Safety was assessed based on adverse events, clinical laboratory evaluations, vital signs, electrocardiogram and physical examinations.

[2] = Plasma PK of baxdrostat and baxdrostat-M in the metformin crossover study (Example 6A); assay type: in vivo, human; details: single 10-mg dose of baxdrostat
Description: This study was designed as a phase 1, randomized, open-label, 2-period, crossover trial. Each subject participated in a screening period of up to 26 days followed by 2 inpatient treatment periods and a follow-up phone call. […] Plasma samples were extracted by protein precipitation with methanol, followed by analysis by LC-MS/MS with ESI(+) and MRM. Reversed-phase chromatographic separation with a mobile phase gradient of 20% to 90% was utilized, and total run time was approximately 5 minutes. […] PK parameters were calculated using noncompartmental methods with SAS software, version 9.4 (SAS Institute). […] Tmax; […] AUC0-t; AUC0-inf, AUC0-inf extrapolated; λz; and t1/2. Plasma AUC0-72 was assessed only for baxdrostat and baxdrostat-M. […] Urine PK parameters included Ae, renal clearance (calculated as Ae/AUC), and the fraction of dose excreted renally.

aldosterone synthase = target: T1, aldosterone synthase (Homo sapiens, UniProt P19099); experiment: Study 121: pharmacodynamics, serum and 24-hour urine aldosterone, plasma renin activity, serum cortisol; assay type: in vivo
T1 construct: Pharmacodynamic measurements included plasma aldosterone, cortisol, and electrolytes; endogenous in cells; host or cells: human subjects in vivo (healthy volunteers; resistant hypertension patients)
T1 sequence (P19099 25-503): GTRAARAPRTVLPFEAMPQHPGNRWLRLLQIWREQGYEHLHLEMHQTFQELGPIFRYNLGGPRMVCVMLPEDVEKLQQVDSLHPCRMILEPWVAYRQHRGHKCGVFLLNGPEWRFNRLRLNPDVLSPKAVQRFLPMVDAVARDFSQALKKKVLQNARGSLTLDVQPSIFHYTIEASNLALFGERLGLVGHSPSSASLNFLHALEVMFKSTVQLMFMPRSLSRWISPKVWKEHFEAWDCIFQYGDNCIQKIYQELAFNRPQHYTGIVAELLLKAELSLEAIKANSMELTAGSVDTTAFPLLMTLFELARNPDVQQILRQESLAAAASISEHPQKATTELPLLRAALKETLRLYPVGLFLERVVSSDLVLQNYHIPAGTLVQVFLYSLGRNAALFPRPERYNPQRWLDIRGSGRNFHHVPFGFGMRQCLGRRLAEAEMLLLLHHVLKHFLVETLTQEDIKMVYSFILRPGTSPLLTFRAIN
Text: Blood and urine samples were collected for determination of the pharmacodynamic parameters related to baxdrostat mechanism of aldosterone suppression. Serum concentrations of aldosterone, aldosterone excreted in 24-hour urine collections, plasma renin activity (PRA) and serum cortisol are summarized by dose and by study day as shown in FIGS. 3A-3D. […] These hormonal data provide strong biochemical evidence to support the mechanism by which baxdrostat's inhibition of aldosterone synthesis produces a significant impact on blood pressure levels without lowering serum cortisol levels.

[3] = Relative bioavailability tablet vs oral solution and food effect (Example 3); assay type: in vivo, human; details: for Tmax: human, plasma, oral, 5 mg
Description: The relative bioavailability of a tablet formulation of baxdrostat was compared to the oral solution of baxdrostat that was administered in the SAD (Example 1) and MAD (Example 2) studies. A single 5 mg dose of each formulation in fourteen healthy volunteers established that plasma levels of baxdrostat were equivalent whether administered using the oral solution or tablet. This study also assessed the effect of a standardized high-fat meal on the PK of baxdrostat.

[4] = Safety in subjects with varying degrees of renal function (Example 4); assay type: in vivo, human
Description: Safety was assessed throughout the study based on adverse events, physical examinations, ECG, seated and orthostatic vital signs, weight measurements, and clinical laboratory evaluations

[5] = control eGFR ≥60 mL/min (n = 10)
[6] = moderate to severe renal impairment (n = 11)
[7] = single 10 mg, all renal function groups

CCC(=O)N[C@@H]1CCCc2c(-c3ccc4c(c3)CCC(=O)N4C)cncc21 [baxdrostat, (R)—N-(4-(1-methyl-2-oxo-1,2,3,4-tetrahydroquinolin-6-yl)-5,6,7,8-tetrahydroisoquinolin-8-yl) propionamide]
clinical laboratory evaluations, vital signs, electrocardiograms, physical examinations ([1]; both groups): No clinically significant changes
TEAE deemed related to baxdrostat ([1]; normal hepatic function group): One TEAE of headache with moderate severity
deaths, serious TEAEs, study discontinuations ([1]; single 10 mg, both hepatic function groups): no deaths, serious treatment-emergent adverse events (TEAE), or study discontinuations
AUC% extrapolated ([2]; human): 8.36%
AUC(0-t) ([2]; human, read-out: AUC0-24, Mean): 1660 ng·h/mL
AUC(0-t) ([2]; human, read-out: AUC0-72, GM): 2790 ng·h/mL
AUC(0-t) ([2]; human, read-out: AUC0-72, Mean): 2870 ng·h/mL
AUC(0-inf) ([2]; human, read-out: AUC0-inf, GM): 2920 ng·h/mL
AUC(0-inf) ([2]; human, read-out: AUC0-inf, Mean): 3030 ng·h/mL
Cmax ([2]; human, read-out: Cmax, GM): 117 ng/mL
Cmax ([2]; human, read-out: Cmax, Mean): 119 ng/mL
Tmax ([2]; human, read-out: Tmax, GM): 1.54 h
Tmax ([2]; human, read-out: Tmax, Mean): 1.68 h
AUC0-24, GM [2]: 1637.461 ng·h/mL
λz, GM [2]: 0.032 h⁻¹
λz, Mean [2]: 0.033 h⁻¹
urinary aldosterone excretion (aldosterone synthase; 24-hour urine): significantly reduced urinary aldosterone excretion
suppression of aldosterone and augmentation of renin activity, male vs female patients (aldosterone synthase; in vivo): comparable between male and female patients
plasma renin activity (PRA) (aldosterone synthase; rHTN patients): increased PRA several-fold
total serum cortisol (aldosterone synthase; rHTN patients): no reduction in total serum cortisol
Tmax ([3]; fasted state): ~3 h
Tmax ([3]; fed state (high-fat meal)): ~4 h
plasma levels, oral solution vs tablet ([3]; single 5 mg dose of each formulation): equivalent
effect of high-fat meal on plasma levels ([3]; tablet, single 5 mg): no noteworthy effect
Diarrhea, n (%) ([4]; Total (n = 33)): 1 (3.0) n (%)
Metabolic encephalopathy, n (%) ([4]; Total (n = 33)): 1 (3.0) n (%)
Subjects with any TEAEs, n (%) ([4]; Total (n = 33)): 2 (6.1) n (%)
Tremor, n (%) ([4]; Total (n = 33)): 1 (3.0) n (%)
Diarrhea, n (%) [4, 5]: 1 (10.0) n (%)
Metabolic encephalopathy, n (%) [4, 5]: 0 (0.0) n (%)
Subjects with any TEAEs, n (%) [4, 5]: 1 (10.0) n (%)
Tremor, n (%) [4, 5]: 0 (0.0) n (%)
Diarrhea, n (%) ([4]; kidney failure (n = 12)): 0 (0.0) n (%)
Subjects with any TEAEs, n (%) ([4]; kidney failure (n = 12)): 1 (8.3) n (%)
Metabolic encephalopathy, n (%) ([4]; kidney failure (n = 12), considered severe and unrelated to the study drug): 1 (8.3) n (%)
Tremor, n (%) ([4]; kidney failure (n = 12), unrelated to the study drug): 1 (8.3) n (%)
Diarrhea, n (%) [4, 6]: 0 (0.0) n (%)
Metabolic encephalopathy, n (%) [4, 6]: 0 (0.0) n (%)
Subjects with any TEAEs, n (%) [4, 6]: 0 (0.0) n (%)
Tremor, n (%) [4, 6]: 0 (0.0) n (%)
deaths and drug-related treatment-emergent adverse events [4, 7]: no deaths and only one mild drug-related treatment-emergent adverse event (diarrhea)
laboratory values, vital signs, physical examinations, ECGs [4, 7]: no clinically meaningful changes
